Test results published in patent publication US20160046616A1, “NRF2 SMALL MOLECULE INHIBITORS FOR CANCER THERAPY” (THE JOHNS HOPKINS UNIVERSITY, priority 2013, published 2016).
pIC50: −log10 of the molar value. “Also recorded” adds a separate entry of the source.

Tests used:
[1] = test system: H1437 NRF2-ARE-Fluc stable cell line; assay: H1437 Nrf2 assay: NRF2-ARE firefly luciferase reporter gene assay; format: cell-based; settings: Homo sapiens, NCI-H1437, H1437 NRF2-ARE-Fluc stable cell line; read-out: Potency of inhibition, H1437
[2] = test system: Rhabdomyosarcoma cells (Rh30); assay: Growth of rhabdomyosarcoma cells (clonogenic / soft agar); format: cell-based; settings: for Growth of rhabdomyosarcoma cells, clonogenic assay, single agent: single agents
Protocol: (A) Ewing sarcoma cells (A4573) cells were on soft agar and treated with doxorubicin (2 nM) singly or in combination with compound 4 (10 μM) for 72 h. At the end of treatment, regular growth media was added and cells were further incubated for 8-10 days and colonies were stained with crystal violet and counted. (B) Rhabdomyosarcoma cells (Rh30) cells were on soft agar and treated with doxorubicin (2 nM) and etoposide (5-nM) singly or in combination with compound 4 (10 μM) for 72 h. At the end of treatment, regular growth media was added and cells were further incubated for 8-10 days and colonies were stained with crystal violet and counted;
(§1) For the clonogenic assays, 1,000 cells/well were plated in a 6-well plate. The next day, the cells were treated with vehicle (DMSO), Nrf2 inhibitor, a chemotherapeutic drug, or a combination of Nrf2 and chemotherapeutic drugs for 48 hrs. The drug containing media was then replaced with regular growth media and the cells were incubated for an additional 10 days. At the end of incubation period, the colonies were stained with Crystal Violet and imaged.

A549 lung cancer cells = assay: Clonogenic assay in A549 lung cancer cells; format: cell-based; settings: combination with chemotherapeutic drug
Protocol: For the clonogenic assay, exponentially growing cells were counted, diluted, and seeded in triplicate at 1,000 cells/well in a 6-well plate. Cells were incubated for 24 h in a humidified CO2 incubator at 37° C., and exposed to drugs or vehicle for 48 h. The chemotherapeutic drugs, etoposide, cisplatin, or carboplatin were added to some of the samples to see the effect of the drug in the presence and absence of the small inhibitors of Nrf2. After the treatment period, the drug containing media was replaced with complete growth media. To assess clonogenic survival following the drug treatment, A549 cells from a type of non-small cell lung cancer cell line were incubated in complete growth medium at 37° C. for 10-14 days and then stained with 50% methanol-crystal violet solution. Only colonies with more than 50 cells were counted (final concentration of DMSO in the growth media was 0.1%).
as §1

H460 xenograft tumors = assay: H460 lung cancer xenograft assay (flank); format: in vivo, athymic nude mice; settings: for Growth of H460 xenograft tumors, combination with carboplatin / Growth of H460 xenograft tumors, single agent: nude mice
Protocol: For each group, pretreatment available lung volume was defined as 100% and compared with post-treatment lung volumes.
A549 cells were injected in the flanks of athymic nude mice and once tumor volume reached 50-100 mm^3, treatment was initiated. Vehicle, carboplatin (20 mg/kg; 2 days/week), compound#1 (20 mg/kg 4 days/week) or a combination of compound 1 and carboplatin was administered for four weeks. Values represent tumor volume ±s.e.m. for all groups. […] Tumors were excised and weight at the end of treatment period. […] H460 cells were injected in the flanks of athymic nude mice and once tumor volume reached 50-100 mm^3, treatment was initiated. Vehicle, carboplatin (10 mg/kg; 5 days/week), compound 1 (30 mg/kg 5 days/week) or a combination of compound 1 and carboplatin was administered for three weeks. Values represent tumor volume ±s.e.m.;
For the H460 lung cancer xenograft assay, two million cells in 100 μL of PBS were implanted in the flank of nude mice. One week post cell implantation, when the tumors were about 50 to 100 mm^3 in dimension, the mice were randomly divided into four groups: vehicle, chemotherapeutic drug, Nrf2 inhibitor and chemotherapeutic drug with an Nrf2 inhibitor. The mice were treated with the drugs for 2 to 4 weeks. Tumor volume was recorded biweekly.

[3] = test system: A549 NRF2-ARE-Fluc stable cell line; assay: A549 Nrf2 assay: NRF2-ARE firefly luciferase reporter gene assay; format: cell-based; settings: Homo sapiens, read-out: Potency of inhibition, A549
Method in brief: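 A549 cells (Keap1 loss-of-function, constitutive NRF2) stably carrying ARE-driven firefly luciferase; compound treatment 18–24 h at 37 °C, 0.46% DMSO final.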

pIC50 [1] | pIC50 [3] | Compound | Growth of rhabdomyosarcoma cells, clonogenic assay, single agent [2] | Cytotoxicity of chemotherapeutic drugs in combination with the compound, clonogenic assay (A549 lung cancer cells) | Growth of H460 xenograft tumors, combination with carboplatin (H460 xenograft tumors) | Growth of H460 xenograft tumors, single agent (H460 xenograft tumors; single agent) | Colony growth of Rh30 cells on soft agar, combination ([2]; 10 μM with doxorubicin (2 nM) and etoposide, 72 h) | Colony growth of Rh30 cells on soft agar, single agent ([2]; 10 μM, 72 h) | Growth of H460 xenograft tumors, combination with carboplatin (H460 xenograft tumors; listed as ML385) | Efficacy of compound alone relative to carboplatin, H460 tumors (H460 xenograft tumors; single agent)
> 5.30 | 4.60 to 5.30 | O=C(Nc1ncc(Cc2ccc(C(F)(F)F)cc2)s1)c1ccc(-c2cccc([N+](=O)[O-])c2)o1 [Compound 1] | suppress growth of rhabdomyosarcoma cells | more effective in combination with a chemotherapeutic drug | shows anti-tumor efficacy in combination with carboplatin | – | – | – | – | –
> 5.30 | > 5.30 | CC1(C)CC2CC(C)(CN2S(=O)(=O)c2ccc(C(=O)Nc3ccc(Cl)c(S(=O)(=O)N4CCOCC4)c3)cc2)C1 (stereo not drawn) [compound 3] | suppress growth of rhabdomyosarcoma cells | enhance the cytotoxicity of standard care chemotherapeutic drugs | inhibited the growth | inhibited the growth | – | – | – | –
> 5.30 | > 5.30 | Cc1ccccc1C(=O)N1CCc2cc(-c3nc(NC(=O)Cc4ccc5c(c4)OCO5)sc3C)ccc21 [compound 4] | suppress growth of rhabdomyosarcoma cells | more effective in combination with a chemotherapeutic drug; also recorded: potentiates the toxicity of standard care chemotherapy drugs | sensitized H460 lung tumors to carboplatin drug therapy | significant reduction in tumor volume and weight | potentiates the cytotoxicity of standard care chemotherapy drugs | significant growth inhibitory activity as single agent | significant reduction in tumor volume and weight | comparable to carboplatin
